From article PMC10007777, “Glycyrrhizic acid inhibits myeloid differentiation of hematopoietic stem cells by binding S100 calcium binding protein A8 to improve cognition in aged mice” (Immunity & Ageing : I & A, 2023)

Target: T1, S100A8 protein (S100 calcium binding protein A8; MRP-8) (Mus musculus, UniProt P27005)
T1 construct: amine-coupled to CM5 (COOH) chip
T1 sequence (P27005 2-89): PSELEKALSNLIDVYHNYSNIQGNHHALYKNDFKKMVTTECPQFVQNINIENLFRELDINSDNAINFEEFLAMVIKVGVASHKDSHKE
Assay: SPR (BIAcore […]), S100A8 immobilized
Settings: 20 mM Tris-HCl, 150 mM NaCl, 1 mM TCEP, pH 7.2, 25 C; GA 0-500 uM

## CC1(C)[C@@H](O[C@H]2O[C@H](C(=O)O)[C@@H](O)[C@H](O)[C@H]2O[C@@H]2O[C@H](C(=O)O)[C@@H](O)[C@H](O)[C@H]2O)CC[C@]2(C)[C@H]3C(=O)C=C4[C@@H]5C[C@@](C)(C(=O)O)CC[C@]5(C)CC[C@@]4(C)[C@]3(C)CC[C@@H]12 [GA, Glycyrrhizic acid]
  binding (SPR): The experimental results show binding between GA and S100A8 protein (Fig. 5E).
